Source: patent publication US7442529B2, “Fluorescent probes for biological studies” (Massachusetts Institute of Technology, priority 2005, dated 2008)
Counter-ions that a name gives are not always drawn. One block for each molecule: values may come before it. Non-standard residues stand in square brackets, D forms with d. Residues, ends and D or L forms follow the SMILES beside them. Dap(6-DMN) = CN(C)c1ccc2cc3c(cc2c1)C(=O)N(C[C@H](N)C(=O)O)C3=O; pY = N[C@@H](Cc1ccc(OP(=O)(O)O)cc1)C(=O)O

Columns and labels:
[1] = target: T1, GST-Abl SH2 (Homo sapiens, UniProt P00519); test: Fluorescence titration of peptides with GST-Abl SH2, determination of Kd; format: binding
T1 construct: The SH2 domain was cloned using BamH1 (5′) EcoR1 (3′) sites; made in house; host or cells: E. coli (plasmid received from elsewhere; strain not clearly stated for Abl)
T1 sequence (P00519 127-217 limits assumed): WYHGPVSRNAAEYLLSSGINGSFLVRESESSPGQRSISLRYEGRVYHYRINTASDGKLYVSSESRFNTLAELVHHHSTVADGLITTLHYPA
Method: (§1) The peptides of Table 1 were incubated with targeted and nontargeted SH2 domains. The binding of peptides Crk-bp, Crk-bp2, Abl-bp, and Abl-bp2 to SH2 target domains can be studied by fluorescence titration as shown in FIGS. 1-4.
Fluorescence titrations of Abl-bp with non-targeted GST-PI3K SH2 and […] are shown in FIG. 2 (b) and 4 (c), respectively. The relative fluorescence emission intensities for the Abl-bp peptide and aforementioned SH2 domain titrations are shown in FIG. 2 (c).
Fluorescence titrations Abl-bp2 with non-targeted GST-PI3K SH2 and GST-Crk SH2 are shown in FIGS. 3 (b) and 4 (d), respectively. The relative fluorescence emission intensities for the Abl-bp2 peptide and aforementioned SH2 domain titrations are shown in FIG. 3 (c).
(§2) Peptide stock solutions of known concentration (determined by UV absorbance at 388 nm, E=7980 M−1 cm−1) were used to prepare 5 μM peptide concentration samples in buffered water (150 μL total volume, 100 mM NaCl, 10 mM sodium phosphate, pH 7.5). 2 μL aliquots of the corresponding stock protein solution (GST-Crk SH2, GST-Abl SH2 or GST-PI3K SH2, concentration determined by Bio-Rad Protein Assay) were consecutively added, and fluorescence emission spectra were recorded 1 minute after each addition ([…], 2 nm excitation and emission slit width). The increase in emission intensity at the maximum emission wavelength was plotted against total protein concentration and fitted by least-square analysis assuming a 1 to 1 binding mode to obtain the apparent Kd.
Abl-SH2 was received as a GST fusion in a pGEX-KT vector, amp-resistant, IPTG-inducible. The SH2 domain was cloned using BamH1 (5′) EcoR1 (3′) sites.

[2] = tested on: GST-PI3K SH2; test: Fluorescence titration of peptides with GST-PI3K SH2 (non-target domain); format: binding; settings: peptide saturated with GST-PI3K SH2, 565 nm (FIG. 1c)
Method: as §1
(§3) Fluorescence titrations of Crk-bp and Crk-bp2 with targeted GST-Crk SH2 are shown in FIG. 1 (a) and (b), respectively. Fluorescence titrations of Crk-bp and Crk-bp2 with non-targeted GST-Abl SH2 are shown in FIG. 4 (a) and (b), respectively.
Peptide stock solutions of known concentration (determined by UV absorbance at 388 nm, E=7980 M−1 cm−1) were used to prepare 5 μM peptide concentration samples in buffered water (150 μL total volume, 100 mM NaCl, 10 mM sodium phosphate, pH 7.5). 2 μL aliquots of the corresponding stock protein solution (GST-Crk SH2, GST-Abl SH2 or GST-PI3K SH2, concentration determined by Bio-Rad Protein Assay) were consecutively added, and fluorescence emission spectra were recorded 1 minute after each addition (excitation 395 nm, 2 nm excitation and emission slit width). […]
Src and PI3K SH2 domains were expressed and purified as GST fusion following reported procedures. […] Proteins were quantified using the Micro BCA protein Assay Kit (Pierce) relative to a BSA standard. All fusion proteins were analyzed by Coomasie staining and Western analysis with anti-GST antibodies.

[3] = target: GST-Crk SH2 (Homo sapiens, UniProt P46108); test: Fluorescence titration of peptides with GST-Crk SH2, determination of Kd; format: binding; parameters: Human Crk SH2 domain was expressed as a GST fusion protein; made in house; host or cells: E. coli NB42
Method: as §1, §3, §2
Human Crk SH2 domain was expressed as a GST fusion protein transformed into E. coli NB42 strain. Expression of SH2 domains was carried out following reported conditions. […]

[4] = Photophysical properties: UV absorbance, fluorescence emission and quantum yield in different solvents; format: physicochemical; settings: for quantum yield (Φ): vs. quinine sulfate standard
Method: Quantum yields (Φ) were measured by comparison with a standard, which emits in a similar region to the test sample. From the available standard compounds quinine sulfate in 0.1 M H2SO4 (Φ=0.54) was selected.
UV absorbance at the excitation wavelength (375 nm), and fluorescence emission spectra of a series of solutions of the standard and compound were recorded. Solutions were prepared with different absorbances, ranging from 0 (solvent blank) to 0.1. A series of graphs of integrated fluorescence vs. absorbance were obtained. The data were fitted to a linear equation with gradient (grad), and intercept=0. See FIG. 5 as an example of the plots obtained.
The gradients of graphs in FIG. 5 are proportional to the quantum yield of the different samples. Absolute values were calculated using the standard sample, which has a fixed and known fluorescence quantum yield value, according to the following equation: […]
Where the subscripts std and x denote standard and test respectively. The value Φ is the fluorescence quantum yield, grad is the gradient (grad) from the plot of integrated fluorescence intensity vs. absorbance, and η the refractive index of the solvent.
The UV absorbance spectra (40 μM in methanol) and fluorescence emission spectra of compound (VIII), 6DMN-GlyOMe are shown in FIG. 6 and tabulated in Table 4. The UV spectrum of 6DMN-GlyOMe has an intense absorption band at 378 nm which is not found in unsubstituted 2,3-naphthalimides. The maximum excitation wavelength of 6DMN-GlyOMe is at 375 nm.
Quantum yields (Φ) were measured in the solvents listed in Table 2 by comparison with a standard, which emits in a similar region to 6DMN-GlyOMe. Quinine sulfate in 0.1 M H2SO4 (Φ=0.54) was used as the standard. (Melhuish, W. B. J. Phys. Chem., 1961, 65, 229-235). Solutions were prepared at different concentrations such that the absorbance measurements ranged between 0 and 0.1 at and above the excitation wavelength to avoid non-linear effects.
UV absorbance at the excitation wavelength (375 nm), and fluorescence emission spectra of a series of solutions of the standard and 6DMN-GlyOMe were recorded. A series of graphs of integrated fluorescence vs. absorbance were obtained. The data were fitted to a linear equation with gradient (grad), and intercept=0. The gradient (grad) is proportional to the quantum yield of the sample. Absolute values were calculated using the standard sample, which has a fixed and known fluorescence quantum yield value, according to the equation above.

[5] = Lippert-Mataga plot: Stokes shift vs. orientation polarizability; format: physicochemical; settings: from Stokes shift in 1,4-dioxane/acetonitrile mixtures
Excerpt: This can be estimated from a Lippert-Mataga plot, which is essentially a plot of the Stokes shift of the fluorescence emission versus the solvent polarity. (Lippert, V. E. Z. Elektrochem. 1957, 61, 962-975; Mataga, N.; Kaifu, Y.; Koizumi, M. Bull. Chem. Soc. Jpn. 1956, 29, 465-470.)
The difference (Δ v) in the maximum absorption ( vA) and emission wavelengths ( vF), known as the Stokes shift and expressed in wavenumbers, is plotted vs. Δf. The term Δf is called the orientation polarizability and can be calculated according to the following equation:
[formula] where ε is the solvent dielectric constant and n is the solvent refraction index.
The term Δf can also be calculated for a mixture of solvents. […] In this case, Δf is obtained for each mixture using ε and n values calculated using the molar fractions (χ) in the equation as follow: ε=(χacetonitrile)(38.8)+(χdiox)(2.218) (3) n=(χacetonitrile)(1.3442)+(χdiox)(1.4224) (4) where χacetonitrile+χdiox=1.
The relationship between Δ v and Δf is expressed by the following equation:
[formula] where c is the velocity of light, h is Plank's constant, μe−μg is the difference between the dipole moments of the excited and the ground states respectively (Δμ), and α0 is the radius of the Onsager cavity around the compound.

[6] = in 0.1 M H2SO4; Melhuish 1961; cited from earlier work

Molecule: CC[C@H](C)[C@H](NC(=O)[C@H](CC(N)=O)NC(=O)[C@@H]1CCCN1C(=O)[C@H](Cc1c[nH]cn1)NC(=O)[C@H](CC(=O)O)NC(=O)[C@H](Cc1ccc(OP(=O)(O)O)cc1)NC(=O)[C@H](CCC(N)=O)NC(=O)[C@H](CN1C(=O)c2cc3ccc(N(C)C)cc3cc2C1=O)NC(=O)CNC(C)=O)C(N)=O [Crk-bp2, Ac-Gly-Dap(6DMN)-Gln-pTyr-Asp-His-Pro-Asn-Ile-(CONH2) (SEQ ID NO: 5)] (Ac-G[Dap(6-DMN)]Q[pY]DHPNI-NH2)
relative fluorescence emission intensity with non-target SH2 domain compared with targeted GST-Crk SH2 ([1]; peptide saturated with GST-Abl SH2, 565 nm (FIG. 1c)): notably less
relative fluorescence emission intensity with non-target SH2 domain compared with targeted GST-Crk SH2 [2]: notably less

Molecule: CC[C@H](C)[C@H](NC(=O)[C@H](CC(N)=O)NC(=O)[C@@H]1CCCN1C(=O)[C@H](Cc1c[nH]cn1)NC(=O)[C@H](CC(=O)O)NC(=O)[C@H](Cc1ccc(OP(=O)(O)O)cc1)NC(=O)[C@H](CCC(N)=O)NC(=O)[C@H](CN1C(=O)c2cc3ccc(N(C)C)cc3cc2C1=O)NC(=O)[C@H](CCC(=O)O)NC(C)=O)C(N)=O [Crk-bp, Ac-Glu-Dap(6DMN)-Gln-pTyr-Asp-His-Pro-Asn-Ile-(CONH2) (SEQ ID NO: 1)] (Ac-E[Dap(6-DMN)]Q[pY]DHPNI-NH2)
Kd [3]: 4.8 ± 2 µM
Fluorescence increase ([3]; target Crk SH2, excitation 375 nm, emission 565 nm): 500%^b

maximum excitation wavelength [4]: 375 nm
intense absorption band of the UV spectrum ([4]; 40 μM in methanol): 378 nm
absorbance maximum ([4]; 1,4-dioxane): 372 nm
emission maximum ([4]; 1,4-dioxane): 498 nm
quantum yield (Φ) ([4]; 1,4-dioxane): 0.220
absorbance maximum ([4]; 2-propanol): 385 nm
emission maximum ([4]; 2-propanol): 589 nm
quantum yield (Φ) ([4]; 2-propanol): 0.018
absorbance maximum ([4]; DMF): 380 nm
emission maximum ([4]; DMF): 545 nm
quantum yield (Φ) ([4]; DMF): 0.155
absorbance maximum ([4]; acetone): 375 nm
emission maximum ([4]; acetone): 532 nm
quantum yield (Φ) ([4]; acetone): 0.148
absorbance maximum ([4]; acetonitrile): 380 nm
emission maximum ([4]; acetonitrile): 549 nm
quantum yield (Φ) ([4]; acetonitrile): 0.135
absorbance maximum ([4]; chloroform): 380 nm
emission maximum ([4]; chloroform): 509 nm
quantum yield (Φ) ([4]; chloroform): 0.225
absorbance maximum ([4]; dichloromethane): 379 nm
emission maximum ([4]; dichloromethane): 517 nm
quantum yield (Φ) ([4]; dichloromethane): 0.210
absorbance maximum ([4]; ethanol): 379 nm
emission maximum ([4]; ethanol): 584 nm
quantum yield (Φ) ([4]; ethanol): 0.027
absorbance maximum ([4]; methanol): 382 nm
emission maximum ([4]; methanol): 589 nm
quantum yield (Φ) ([4]; methanol): 0.012
absorbance maximum ([4]; tetrahydrofuran): 373 nm
emission maximum ([4]; tetrahydrofuran): 510 nm
quantum yield (Φ) ([4]; tetrahydrofuran): 0.147
absorbance maximum ([4]; toluene): 373 nm
emission maximum ([4]; toluene): 491 nm
quantum yield (Φ) ([4]; toluene): 0.208
absorbance maximum ([4]; water): 388 nm
emission maximum ([4]; water): 592 nm
increase in the dipole moment between ground and excited state [5]: 5.5 D
Molecule: COC(=O)CN1C(=O)c2cc3ccc(N(C)C)cc3cc2C1=O [Peptide 6DMN-GlyOMe]

Molecule: C=C[C@H]1C[N@@]2CC[C@H]1C[C@H]2[C@H](O)c1ccnc2ccc(OC)cc12 [quinine sulfate]
quantum yield (Φ) of the standard [6]: 0.54

Kd ([1]; target Abl SH2, 20 μM in PBS buffer, pH 7.5): 12 ± 2 µM
Molecule: Ac-Dap(6DMN)-Gln-pTyr-Glu-Asn-Val-Gln-Ser-(CONH2) (SEQ OD NO: 7) [Abl-bp2]

Molecule: Ac-Gly-Dap(6DMN)-Gln-pTyr-Glu-Asn-Val-Gln-Ser-(CONH2) (SEQ ID NO: 6) (Ac-G[Dap(6DMN)]Q[pY]ENVQS-NH2) [Abl-bp]
quantum yield (Φ) ([4]; water, calculated using peptide Abl-bp): 0.002
Fluorescence increase ([1]; target Abl SH2, excitation 375 nm, emission 599 nm): 400%^c
